Experimental data published in patent US20200291018A1, “TAM KINASE INHIBITORS” (SYROS PHARMACEUTICALS, INC., priority 2017, published 2020).

Experiments:
[1] = target: T1, FLT3 (Homo sapiens, UniProt P36888); assay: TR-FRET kinase activity assay, FLT3; type: biochemical; settings: ATP at Km, 60 minutes
T1 sequence (P36888 27-993): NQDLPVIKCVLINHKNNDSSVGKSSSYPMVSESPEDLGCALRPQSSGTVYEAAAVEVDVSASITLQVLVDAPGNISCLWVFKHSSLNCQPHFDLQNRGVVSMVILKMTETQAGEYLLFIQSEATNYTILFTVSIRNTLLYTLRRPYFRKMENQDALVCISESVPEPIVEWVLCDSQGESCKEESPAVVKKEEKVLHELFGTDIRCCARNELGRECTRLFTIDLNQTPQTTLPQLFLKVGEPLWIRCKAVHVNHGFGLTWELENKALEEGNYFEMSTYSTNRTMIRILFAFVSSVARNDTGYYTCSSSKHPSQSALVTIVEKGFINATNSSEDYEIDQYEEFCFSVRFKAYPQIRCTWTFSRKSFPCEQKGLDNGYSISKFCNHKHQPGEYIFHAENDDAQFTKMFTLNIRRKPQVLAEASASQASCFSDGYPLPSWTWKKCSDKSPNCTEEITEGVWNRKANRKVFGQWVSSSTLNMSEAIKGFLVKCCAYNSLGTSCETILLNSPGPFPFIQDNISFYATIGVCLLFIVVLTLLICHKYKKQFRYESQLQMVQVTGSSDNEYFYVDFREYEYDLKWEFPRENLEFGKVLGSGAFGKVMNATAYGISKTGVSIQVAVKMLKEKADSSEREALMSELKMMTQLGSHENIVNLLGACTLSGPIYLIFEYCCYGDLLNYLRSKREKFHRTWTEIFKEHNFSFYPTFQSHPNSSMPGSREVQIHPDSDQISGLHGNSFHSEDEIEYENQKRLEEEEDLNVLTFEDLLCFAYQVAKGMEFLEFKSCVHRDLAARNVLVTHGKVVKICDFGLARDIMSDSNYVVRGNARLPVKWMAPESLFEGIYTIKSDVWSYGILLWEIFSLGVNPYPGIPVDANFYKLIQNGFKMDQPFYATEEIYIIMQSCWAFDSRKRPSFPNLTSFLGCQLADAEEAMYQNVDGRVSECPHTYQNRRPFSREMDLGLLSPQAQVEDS
Method in brief: (§1)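 Enzyme, fluorescent-labeled peptide substrate and compound were mixed, then ATP was added at each enzyme's Km. Buffer was 50 mM HEPES pH 7.5, 10 mM MgCl2, 1 mM EGTA, 0.01% Brij 35, 1 mM DTT at RT. After 60 min, EDTA quench and 30 min with Eu-anti-phosphotyrosine-site antibody; TR-FRET read gave IC50.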

[2] = target: T2, TYRO3 (Homo sapiens, UniProt Q06418); assay: TR-FRET kinase activity assay, TYRO3; type: biochemical; settings: ATP at Km, 60 minutes
T2 sequence (Q06418 41-890): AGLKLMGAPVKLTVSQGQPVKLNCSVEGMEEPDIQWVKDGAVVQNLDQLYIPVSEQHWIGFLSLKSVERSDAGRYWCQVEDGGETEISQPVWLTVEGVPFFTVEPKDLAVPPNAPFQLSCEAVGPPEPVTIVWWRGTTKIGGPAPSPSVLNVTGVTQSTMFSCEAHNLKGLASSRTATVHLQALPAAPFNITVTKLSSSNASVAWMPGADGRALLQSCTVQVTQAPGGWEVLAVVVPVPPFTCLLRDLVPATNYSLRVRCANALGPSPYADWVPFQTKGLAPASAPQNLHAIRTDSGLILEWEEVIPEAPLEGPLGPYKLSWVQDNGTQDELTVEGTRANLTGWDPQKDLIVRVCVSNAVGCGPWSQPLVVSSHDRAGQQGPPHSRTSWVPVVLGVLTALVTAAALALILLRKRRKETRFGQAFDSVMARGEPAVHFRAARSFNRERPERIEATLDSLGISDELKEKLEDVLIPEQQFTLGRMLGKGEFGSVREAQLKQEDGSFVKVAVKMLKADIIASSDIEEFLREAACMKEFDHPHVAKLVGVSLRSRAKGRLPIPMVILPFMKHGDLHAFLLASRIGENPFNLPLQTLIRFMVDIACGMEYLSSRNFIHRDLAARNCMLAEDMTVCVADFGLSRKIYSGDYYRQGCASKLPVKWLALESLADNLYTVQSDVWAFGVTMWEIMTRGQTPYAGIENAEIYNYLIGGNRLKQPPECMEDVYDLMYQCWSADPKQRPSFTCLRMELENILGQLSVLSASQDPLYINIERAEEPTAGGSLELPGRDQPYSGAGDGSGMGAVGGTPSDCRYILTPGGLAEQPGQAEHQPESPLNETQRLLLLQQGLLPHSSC
Method in brief: as §1

| IC50 [1] [nM] | IC50 [2] [nM] | SMILES |
| --- | --- | --- |
| 1000 to 10000 | 100 to 1000 | COC[C@H](C)Nc1ncc2c(O[C@@H]3CCNCC3(F)F)ncc([C@H]3CC[C@H](O)CC3)c2n1 [Compound 308] |
| 1000 to 10000 | 1000 to 10000 | COC[C@H](C)Nc1ncc2c(OC3CCOCC3)ncc(C3CCCCN3)c2n1 (some centres unmarked) [Compound 346] |
| ≤ 100 | 100 to 1000 | COC[C@H](C)Nc1ncc2c(OC3CCOCC3)ncc([C@H]3CCCNC3)c2n1 [Compound 326] |
| 100 to 1000 | ≤ 100 | CCc1cc(Nc2ncc3c(OC4CCNCC4)ncc([C@H]4CC[C@H](O)CC4)c3n2)ccc1Cl [Compound 300] |
| 1000 to 10000 | 100 to 1000 | CS(=O)(=O)N1CC[C@H](Nc2ncc3c(OC4CCOCC4)ncc([C@H]4CC[C@H](O)CC4)c3n2)C1 [Compound 278] |
| ≤ 100 | 100 to 1000 | O[C@H]1CC[C@H](c2cnc(OC3CCOCC3)c3cnc(NCCC(F)(F)F)nc32)CC1 [Compound 286] |
| 1000 to 10000 | 100 to 1000 | COC[C@H](C)Nc1ncc2c(OC3CCOCC3)ncc(-c3cnn([C@@H]4CCN(C)C4)c3)c2n1 [Compound 314] |
| 1000 to 10000 | 1000 to 10000 | O=C(O)[C@H]1CC[C@@H](Nc2ncc3c(OC4CCOCC4)ncc([C@H]4CC[C@H](O)CC4)c3n2)CC1 [Compound 353] |
| 1000 to 10000 | 1000 to 10000 | CN1C[C@H](Nc2ncc3c(OC4CCOCC4)ncc([C@H]4CC[C@H](O)CC4)c3n2)CC1=O [Compound 323] |
| 1000 to 10000 | ≤ 100 | COC[C@@H](C)Nc1ncc2c(OC3CC(O)C3)ncc([C@H]3CC[C@H](O)CC3)c2n1 (some centres unmarked) [Compound 351] |
| 100 to 1000 | ≤ 100 | CC(C)Nc1ncc2c(OC3CCOCC3)ncc(-c3cccc(S(=O)(=O)N(C)C)c3)c2n1 [Compound 288] |
| ≤ 100 | ≤ 100 | O[C@H]1CC[C@H](c2cnc(OC3CCNCC3)c3cnc(Nc4ccc(Cl)c(Cl)c4)nc32)CC1 [Compound 299] |
| 1000 to 10000 | 100 to 1000 | COC[C@H](C)Nc1ncc2c(OC3CCOCC3)ncc(-c3ccc(N)nc3)c2n1 [Compound 337] |
